This assay concerns the target T1, human full-length MKNK1 (Homo sapiens, UniProt Q9BUB5, T385D).
T1 construct: GST (N); purchased Carna Biosciences 02-145; host or cells: insect cells (baculovirus expression system)
As to the kind of experiment: MKNK1 kinase high ATP assay (TR-FRET). The following applies: Table 1; MKNK1 kinase high ATP assay, 2 mM ATP; read-out: MKNK1 IC50. Type of assay: biochemical. In short, it runs like this:
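Full-length human MKNK1 (T385D) preincubated 15 min at 22 °C with compound in HEPES pH 7.5/MgCl2/DTT buffer; reaction with 2 mM ATP (final) and 0.06 μM biotinylated peptide (final), 30 min at 22 °C.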

T1 sequence (Q9BUB5 1-424 isoform Q9BUB5-2 T344D): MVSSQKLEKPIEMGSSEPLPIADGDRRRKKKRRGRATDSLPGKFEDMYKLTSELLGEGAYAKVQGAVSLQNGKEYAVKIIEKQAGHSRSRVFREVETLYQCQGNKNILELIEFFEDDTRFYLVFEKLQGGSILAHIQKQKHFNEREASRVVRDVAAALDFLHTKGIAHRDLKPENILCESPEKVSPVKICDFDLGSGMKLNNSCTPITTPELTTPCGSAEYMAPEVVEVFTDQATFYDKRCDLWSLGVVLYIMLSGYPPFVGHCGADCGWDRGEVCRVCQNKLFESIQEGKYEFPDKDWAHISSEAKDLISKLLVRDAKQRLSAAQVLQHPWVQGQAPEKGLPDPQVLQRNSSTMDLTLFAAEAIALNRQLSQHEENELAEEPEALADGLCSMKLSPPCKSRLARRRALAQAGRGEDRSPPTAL

Take `C[C@H](N)COc1cc2[nH]ncc2cc1Nc1ncnc2sc3c(c12)CC[C@H](C(=O)N1CCOC[C@@H]1C)C3` [Example 143, {(7S)-4-[(6-{[(2S)-2-Aminopropyl]oxy}-1H-indazol-5-yl)amino]-5,6,7,8-tetrahydro[1]benzothieno[2,3-d]pyrimidin-7-yl}[(3S)-3-methylmorpholin-4-yl]methanone]: the IC50 amounted to 3 nM.

With `C[C@H](CN)Oc1cc2[nH]ncc2cc1Nc1ncnc2sc3c(c12)CC[C@H](C(=O)N1CCOC[C@H]1C)C3` [Example 144, {(7S)-4-[(6-{[(2R)-1-Aminopropan-2-yl]oxy}-1H-indazol-5-yl)amino]-5,6,7,8-tetrahydro[1]benzothieno[2,3-d]pyrimidin-7-yl}[(3R)-3-methylmorpholin-4-yl]methanone], the IC50 amounted to 1 nM.

Take `C[C@@H](CN)Oc1cc2[nH]ncc2cc1Nc1ncnc2sc3c(c12)CC[C@H](C(=O)N1CCOC[C@@H]1C)C3` [Example 145, {(7S)-4-[(6-{[(2S)-1-Aminopropan-2-yl]oxy}-1H-indazol-5-yl)amino]-5,6,7,8-tetrahydro[1]benzothieno[2,3-d]pyrimidin-7-yl}[(3S)-3-methylmorpholin-4-yl]methanone]: the half-inhibitory concentration (IC50) was found to be 5.1 nM.

`C[C@H](N)COc1cc2[nH]ncc2cc1Nc1ncnc2sc3c(c12)CC[C@H](C(=O)N1CCOC[C@H]1C)C3` [Example 146, {(7S)-4-[(6-{[(2S)-2-Aminopropyl]oxy}-1H-indazol-5-yl)amino]-5,6,7,8-tetrahydro[1]benzothieno[2,3-d]pyrimidin-7-yl}[(3R)-3-methylmorpholin-4-yl]methanone]: the IC50 turned out to be 13.1 nM.

Regarding `C[C@@H](N)COc1cc2[nH]ncc2cc1Nc1ncnc2sc3c(c12)CC[C@H](C(=O)N(C)C)C3` [Example 147, (7S)-4-[(6-{[(2R)-2-Aminopropyl]oxy}-1H-indazol-5-yl)amino]-N,N-dimethyl-5,6,7,8-tetrahydro[1]benzothieno[2,3-d]pyrimidine-7-carboxamide], the IC50 came out at 5.6 nM.

Consider `C[C@@H]1COCCN1C(=O)[C@H]1CCc2c(sc3ncnc(Nc4cc5cn[nH]c5cc4O[C@@H](C)CN)c23)C1` [Example 148, {(7S)-4-[(6-{[(2S)-1-Aminopropan-2-yl]oxy}-1H-indazol-5-yl)amino]-5,6,7,8-tetrahydro[1]benzothieno[2,3-d]pyrimidin-7-yl}[(3R)-3-methylmorpholin-4-yl]methanone], for which the IC50 was found to be 4.2 nM.

Consider `C[C@@H](N)COc1cc2[nH]ncc2cc1Nc1ncnc2sc3c(c12)CC[C@H](C(=O)N1CCOC[C@@H]1C)C3` [Example 149, {(7S)-4-[(6-{[(2R)-2-Aminopropyl]oxy}-1H-indazol-5-yl)amino]-5,6,7,8-tetrahydro[1]benzothieno[2,3-d]pyrimidin-7-yl}[(3S)-3-methylmorpholin-4-yl]methanone], for which the IC50 is 5.2 nM.

Consider `C[C@@H]1COCCN1C(=O)[C@H]1CCc2c(sc3ncnc(Nc4cc5cn[nH]c5cc4OC[C@@H](C)N)c23)C1` [Example 150, {(7S)-4-[(6-{[(2R)-2-Aminopropyl]oxy}-1H-indazol-5-yl)amino]-5,6,7,8-tetrahydro[1]benzothieno[2,3-d]pyrimidin-7-yl}[(3R)-3-methylmorpholin-4-yl]methanone], for which the IC50 turned out to be 7.3 nM.

Regarding `CN(C)CCN(C)c1cc2[nH]ncc2cc1Nc1ncnc2sc3c(c12)CC[C@H](C(=O)N(C)C)C3` [Example 151, (7S)-4-[(6-{[2-(Dimethylamino)ethyl](methyl)amino}-1H-indazol-5-yl)amino]-N,N-dimethyl-5,6,7,8-tetrahydro[1]benzothieno[2,3-d]pyrimidine-7-carboxamide], the IC50 was 39.6 nM.

In the case of `C[C@H](CN)Oc1cc2[nH]ncc2cc1Nc1ncnc2sc3c(c12)CC[C@H](C(=O)N(C)C)C3` [Example 152, (7S)-4-[(6-{[(2R)-1-Aminopropan-2-yl]oxy}-1H-indazol-5-yl)amino]-N,N-dimethyl-5,6,7,8-tetrahydro[1]benzothieno[2,3-d]pyrimidine-7-carboxamide], the IC50 was 0.6 nM.

On to `CN(C)C1CCN(c2cc3[nH]ncc3cc2Nc2ncnc3sc4c(c23)CC[C@H](C(=O)N2C[C@@H]3C[C@H]2CO3)C4)CC1` [Example 153, [(7S)-4-({6-[4-(Dimethylamino)piperidin-1-yl]-1H-indazol-5-yl}amino)-5,6,7,8-tetrahydro[1]benzothieno[2,3-d]pyrimidin-7-yl][(1S,4S)-2-oxa-5-azabicyclo[2.2.1]hept-5-yl]methanone], for which the IC50 was 17.5 nM.

`CN(C)C1CCN(c2cc3[nH]ncc3cc2Nc2ncnc3sc4c(c23)CC[C@H](C(=O)N2C[C@H]3C[C@@H]2CO3)C4)CC1` [Example 154, [(7S)-4-({6-[4-(Dimethylamino)piperidin-1-yl]-1H-indazol-5-yl}amino)-5,6,7,8-tetrahydro[1]benzothieno[2,3-d]pyrimidin-7-yl][(1R,4R)-2-oxa-5-azabicyclo[2.2.1]hept-5-yl]methanone]: the IC50 worked out at 22.9 nM.

For the compound `CC(C)N(C)C(=O)[C@H]1CCc2c(sc3ncnc(Nc4cc5cn[nH]c5cc4N4CCC(N(C)C)CC4)c23)C1` [Example 155, (7S)-4-({6-[4-(Dimethylamino)piperidin-1-yl]-1H-indazol-5-yl}amino)-N-methyl-N-(propan-2-yl)-5,6,7,8-tetrahydro[1]benzothieno[2,3-d]pyrimidine-7-carboxamide], the half-maximal inhibitory concentration (IC50) was 7.6 nM.

For `CCCN(C)C(=O)[C@H]1CCc2c(sc3ncnc(Nc4cc5cn[nH]c5cc4N4CCC(N(C)C)CC4)c23)C1` [Example 156, (7S)-4-({6-[4-(Dimethylamino)piperidin-1-yl]-1H-indazol-5-yl}amino)-N-methyl-N-propyl-5,6,7,8-tetrahydro[1]benzothieno[2,3-d]pyrimidine-7-carboxamide], the IC50 amounted to 10.7 nM.

Turning to `CCN(CCOC)C(=O)[C@H]1CCc2c(sc3ncnc(Nc4cc5cn[nH]c5cc4N4CCC(N(C)C)CC4)c23)C1` [Example 157, (7S)-4-({6-[4-(Dimethylamino)piperidin-1-yl]-1H-indazol-5-yl}amino)-N-ethyl-N-(2-methoxyethyl)-5,6,7,8-tetrahydro[1]benzothieno[2,3-d]pyrimidine-7-carboxamide], the IC50 was found to be 21.6 nM.

Take `CCN(C)C(=O)[C@H]1CCc2c(sc3ncnc(Nc4cc5cn[nH]c5cc4N4CCC(N(C)C)CC4)c23)C1` [Example 158, (7S)-4-({6-[4-(Dimethylamino)piperidin-1-yl]-1H-indazol-5-yl}amino)-N-ethyl-N-methyl-5,6,7,8-tetrahydro[1]benzothieno[2,3-d]pyrimidine-7-carboxamide]: the IC50 was determined as 10 nM.

For the compound `CCCOc1cc2[nH]ncc2cc1Nc1ncnc2sc3c(c12)CC[C@H](C(=O)N1CC(O)C1)C3` [Example 159, (3-Hydroxyazetidin-1-yl){(7S)-4-[(6-propoxy-1H-indazol-5-yl)amino]-5,6,7,8-tetrahydro[1]benzothieno[2,3-d]pyrimidin-7-yl}methanone], the IC50 came to 1.9 nM.

`CC(C)Oc1cc2[nH]ncc2cc1Nc1ncnc2sc3c(c12)CC[C@H](C(=O)N1C[C@@H](C)O[C@@H](C)C1)C3` [Example 160, [(2R,6S)-2,6-dimethylmorpholin-4-yl][(7S)-4-{[6-(propan-2-yloxy)-1H-indazol-5-yl]amino}-5,6,7,8-tetrahydro[1]benzothieno[2,3-d]pyrimidin-7-yl]methanone]: the IC50 was found to be 1.2 nM.

On to `COc1cc2[nH]ncc2cc1Nc1ncnc2sc3c(c12)CC[C@H](C(=O)N1C[C@@H](C)O[C@@H](C)C1)C3` [Example 161, [(2R,6S)-2,6-dimethylmorpholin-4-yl]{(7S)-4-[(6-methoxy-1H-indazol-5-yl)amino]-5,6,7,8-tetrahydro[1]benzothieno[2,3-d]pyrimidin-7-yl}methanone], for which the IC50 amounted to 1.2 nM.

Consider `C[C@@H]1CN(C(=O)[C@H]2CCc3c(sc4ncnc(Nc5ccc6[nH]ncc6c5)c34)C2)C[C@H](C)O1` [Example 162, [(2R,6S)-2,6-dimethylmorpholin-4-yl][(7S)-4-(1H-indazol-5-ylamino)-5,6,7,8-tetrahydro[1]benzothieno[2,3-d]pyrimidin-7-yl]methanone], for which the IC50 was determined as 11.6 nM.

In the case of `COc1cc2[nH]ncc2cc1Nc1ncnc2sc3c(c12)CC[C@H](C(=O)N1CC(F)C1)C3` [Example 163, (3-fluoroazetidin-1-yl){(7S)-4-[(6-methoxy-1H-indazol-5-yl)amino]-5,6,7,8-tetrahydro[1]benzothieno[2,3-d]pyrimidin-7-yl}methanone], the IC50 turned out to be 0.6 nM.

As to `COc1cc2[nH]ncc2cc1Nc1ncnc2sc3c(c12)CC[C@H](C(=O)N1CC(F)(F)C1)C3` [Example 164, (3,3-difluoroazetidin-1-yl){(7S)-4-[(6-methoxy-1H-indazol-5-yl)amino]-5,6,7,8-tetrahydro[1]benzothieno[2,3-d]pyrimidin-7-yl}methanone], the IC50 amounted to 0.7 nM.

For the compound `CN(C)C(=O)[C@H]1CCc2c(sc3ncnc(Nc4cc5cn[nH]c5cc4OCCNC(=O)OC(C)(C)C)c23)C1` [Example 165, tert-butyl {2-[(5-{[(7S)-7-(dimethylcarbamoyl)-5,6,7,8-tetrahydro[1]benzothieno[2,3-d]pyrimidin-4-yl]amino}-1H-indazol-6-yl)oxy]ethyl}carbamate], the IC50 worked out at 0.2 nM.

In the case of `CN(C)C1CCN(c2cc3[nH]ncc3cc2Nc2ncnc3sc4c(c23)CC[C@H](C(=O)N2CC3(COC3)C2)C4)CC1` [Example 166, [(7S)-4-({6-[4-(dimethylamino)piperidin-1-yl]-1H-indazol-5-yl}amino)-5,6,7,8-tetrahydro[1]benzothieno[2,3-d]pyrimidin-7-yl](2-oxa-6-azaspiro[3.3]hept-6-yl)methanone], the IC50 came to 20.6 nM.

As for `CCOc1cc2[nH]ncc2cc1Nc1ncnc2sc3c(c12)CC[C@H](C(=O)N1C[C@@H](C)O[C@@H](C)C1)C3` [Example 167, [(2R,6S)-2,6-dimethylmorpholin-4-yl]{(7S)-4-[(6-ethoxy-1H-indazol-5-yl)amino]-5,6,7,8-tetrahydro[1]benzothieno[2,3-d]pyrimidin-7-yl}methanone], the IC50 is 0.3 nM.

The values above are taken from patent publication US20160297833A1, “THIENOPYRIMIDINES AS MKNK1 AND MKNK2 INHIBITORS” (BAYER PHARMA AKTIENGESELLSCHAFT, priority 2013, published 2016).
